Tests used:
Cox B virus = assay: Plaque reduction assay against Cox B virus; format: cell-based; conditions: for inhibition at 20 µg/mL / inhibition at 40 µg/mL: Vero
Method: (§1) Compounds: 10 mg were dissolved in 1 mL (10% DMSO and 90% deionized water), sterilized by 1% antibiotic–antimycotic mixture and stored in −20.
(§2) Cells: Vero cell line was used. The cells were propagated in DMEM medium (Lonza, USA) supplemented with 10% fetal bovine serum (Gibco, USA), 1% antibiotic–antimycotic mixture (Lonza, USA).
Virus: Cox B virus was propagated and titrated to give final count of 0.9 × 10^5 viral particle/mL.
This test was done according to Tebas et al.[47], In a 12-well plate Vero cells (10^5 cells/mL) were cultivated for 1 day at 37 °C. The Cox B virus was mixed with the safe concentration of the compound and incubated for 1 h at 37 °C before being added to the cells. Following the removal of the growth media, the cells were injected with virus-extract combinations ([…]) and then rinsed with PBS (Phosphate Buffer Saline). Following a one-hour contact period for virus adsorption, the cell monolayer was supplemented with one milliliter of Dulbecco’s Modified Eagles Media (DMEM) containing 2% agarose. The plates were then allowed to solidify and incubated at 37 °C until the development of viral plaques. Formalin (10%) was added for 2 h then plates were stained with crystal violet. Control wells were included where untreated virus was incubated with Vero cells and finally plaques were counted and percentage reduction in plaques formation in comparison to control wells was recorded as following:
% inhibition = (viral count(untreated) - viral count(treated))/viral count(untreated)X100.

Vero cells = assay: Cytotoxicity assay on Vero cells (microscopic morphology); format: cell-based; design: key to Cytotoxicity on Vero cells (cell sheet affected): -: Safe concentration; + 1, +2, + 3, +4: about 25, 50, 75, 100% of cell sheet was affected respectively; + 1, +2, + 3, +4: about 25, 50, 75, 100% of cell sheet was affected respectively; + 1, +2, + 3, +4: about 25, 50, 75, 100% of cell sheet was affected respectively; + 1, +2, + 3, +4: about 25, 50, 75, 100% of cell sheet was affected respectively; M: masked (color of compounds made cells unseen); conditions: for Cytotoxicity on Vero cells (cell sheet affected): 24 h, morphological changes; for Safety effect on Vero cells (in words): Table 1, 24 h
Method: as §1, §2
Cytotoxic effect of compounds was measured by inoculation different doses of compounds on tested cells then examining them microscopically after 24 h to determine any morphological changes that appeared on cells as a result of being subjected to the compounds[46]. Vero cells were seeded onto 96-well plates, which were then incubated for the whole night. After a 24-hour incubation period at 37 °C in a humidified incubator with 5% CO2, compounds were injected at concentrations of 10, 20, 30, 40, 50, 60, 70, 80, 90, and 100 µg /100 µl. Any morphological changes were monitored under a microscope.

Structure (SMILES) | Viral count (treated) (Cox B virus; 20 ug/mL) | Viral count (treated) (Cox B virus; 40 ug/mL) | inhibition at 20 µg/mL (Cox B virus) | inhibition at 40 µg/mL (Cox B virus) | Cytotoxicity on Vero cells (cell sheet affected) (Vero cells; 10 µg/100µl) | Cytotoxicity on Vero cells (cell sheet affected) (Vero cells; 20 µg/100µl) | Cytotoxicity on Vero cells (cell sheet affected) (Vero cells; 30 µg/100µl) | Cytotoxicity on Vero cells (cell sheet affected) (Vero cells; 40 µg/100µl) | Cytotoxicity on Vero cells (cell sheet affected) (Vero cells; 50 µg/100µl) | Cytotoxicity on Vero cells (cell sheet affected) (Vero cells; 60 µg/100µl) | Cytotoxicity on Vero cells (cell sheet affected) (Vero cells; 70 µg/100µl) | Cytotoxicity on Vero cells (cell sheet affected) (Vero cells; 80 µg/100µl) | Cytotoxicity on Vero cells (cell sheet affected) (Vero cells; 90 µg/100µl) | Cytotoxicity on Vero cells (cell sheet affected) (Vero cells; 100 µg/100µl) | Safety effect on Vero cells (in words) (Vero cells) | melting point
COc1ccc(OC)c(C=C2/C(=N/Nc3nc(C)c(/N=N/c4ccc([N+](=O)[O-])cc4)s3)c3ccccc3/C2=N\Nc2nc(C)c(/N=N/c3ccc([N+](=O)[O-])cc3)s2)c1 [7d, 2,2’-(((1E,3E)−2-(2,5-dimethoxybenzylidene)−1H-indene-1,3(2H)-diylidene)bis(hydrazin-1-yl-2-ylidene))bis(4-methyl-5-((E)-(4-nitrophenyl)diazenyl)thiazole)] | 1.6 × 10^7 | 0.54 × 10^7 | 0% | 66% | - | - | - | - | - | - | - | - | - | - | higher safety | 181 to 183 °C
COc1ccc(OC)c(C=C2/C(=N/NC3=NC(=O)CS3)c3ccccc3/C2=N\NC2=NC(=O)CS2)c1 [9a, 2,2’-(((1E,3E)−2-(2,5-dimethoxybenzylidene)−1H-indene-1,3(2H)-diylidene)bis(hydrazin-1-yl-2-ylidene))bis(thiazol-4(5H)-one)] | 1.6 × 10^7 | 1.6 × 10^7 | 0% | 0% | - | - | - | - | - | - |  |  |  |  | highly toxic at low concentration | 130 to 132 °C
COc1ccc(OC)c(C=C2C(=NNC(N)=S)c3ccccc3C2=NNC(N)=S)c1 [compound 3, 2,2’-((1E,3Z)−2-((E)−2,5-dimethoxybenzylidene)−1H-indene-1,3(2H)-diylidene)bis-(hydrazine-1-carbothioamide)] | 1.24 × 10^7 | 0.72 × 10^7 | 22% | 55% | - | - | - | - | - | - | - | - | - | - | higher safety | 231 to 233 °C
COc1ccc(OC)c(C=C2/C(=N/Nc3nc(-c4ccccc4)cs3)c3ccccc3/C2=N\Nc2nc(-c3ccccc3)cs2)c1 [compound 13, 2,2’-(((1E,3E)−2-(2,5-dimethoxybenzylidene)−1H-indene-1,3(2H)-diylidene)bis(hydrazin-1-yl-2-ylidene))bis(4-phenylthiazole)] | 1.6 × 10^7 | 1.6 × 10^7 | 0% | 0% | - | - | - | - | - | - | - | - | - | - | higher safety | 193 to 195 °C
